20 molecules from ChEMBL document CHEMBL2203090, “Synthesis and Evaluation of 5-Fluoro-2-aryloxazolo[5,4-b]pyridines as β-Amyloid PET Ligands and Identification of MK-3328” (ACS Med Chem Lett, 2011) can be followed below.

One data set relates to P-gp (Homo sapiens). Briefly: Activity at human P-gp expressed in pig LLC-PK1 cells assessed as passive apparent permeability.
The target in data set [1] is T1, Amyloid-beta precursor protein (Homo sapiens, UniProt P05067). Briefly: […] amyloid beta plaque in cortex homogenate isolated from Alzheimer disease patient at 9.6 nM after 90 mins by scintillation counting in presence of 5-Fluoro-2-(1-methyl-1H-pyrrolo[2,3-b]pyridin-5-yl)-oxazolo[5,4-b]pyridine. Format: tissue-based. The settings on record: tested as the 3H-labelled form. In general terms: Loss of bound radioactivity is the signal in a displacement assay; it reports binding, not function.

In data set [2] the target is T1, Amyloid-beta precursor protein. In words: Binding affinity to amyloid beta plaque in cortex homogenate isolated from Alzheimer disease patient at 5 nM after 90 mins by autoradiography. Format: tissue-based. The conditions noted are these: tested as the 3H-labelled form.
The target is the same in data set [3]. Briefly: […] amyloid beta plaque in cortex homogenate isolated from Alzheimer disease patient after 90 mins by scintillation counting. Format: tissue-based. The conditions noted are these: for Bmax: tested as the 3H-labelled form.
The target is the same in data set [4]. In words: Ratio of Bmax to Kd for amyloid beta plaque in cortex homogenate isolated from Alzheimer disease patient. In kind it is tissue-based. The conditions noted are these: tested as the 3H-labelled form.
Data set [5] shares this target. Briefly: Binding affinity to human amyloid beta plaque.
The next data set deals with P-gp. In words: Activity at human P-gp expressed in LLC-PK1 cells assessed as efflux ratio of apparent permeability. In kind it is ADME, cell-based.
Data set [6] can be described thus: Drug uptake in rhesus monkey cerebellum after 90 mins. Format: ADME, tissue-based, Macaca mulatta. The settings on record: in vivo, 1.5 h.
For another data set, the system named is Brain. In words: Drug uptake in rhesus monkey brain white matter up to 90 mins. The settings on record: in vivo, 1.5 h. In kind it is ADME, tissue-based, Macaca mulatta.
A short description of data set [7]: Drug uptake in rhesus monkey cerebellum up to 90 mins. Format: ADME, tissue-based, Macaca mulatta. The conditions noted are these: in vivo, 1.5 h.
The nature of data set [8]: Drug uptake in rhesus monkey cortex after 90 mins. Format: ADME, tissue-based, Macaca mulatta. The settings on record: in vivo, 1.5 h.
The nature of data set [9]: Drug uptake in rhesus monkey cortex up to 90 mins. The conditions noted are these: in vivo, 1.5 h. Format: ADME, tissue-based, Macaca mulatta.
Data set [10] concerns the target T1, Amyloid-beta precursor protein. Briefly: […] amyloid beta plaque in cortex homogenate isolated from Alzheimer disease patient at 4.2 nM after 90 mins by scintillation counting in presence of [4-(5-Fluoro-oxazolo[5,4-b]pyridin-2-yl)-phenyl]-dimethyl-amine. Format: tissue-based. The settings on record: tested as the 3H-labelled form.

For data set [11] the target is unchanged. In words: […] amyloid beta plaque in cortex homogenate isolated from Alzheimer disease patient at 6.4 nM after 90 mins by scintillation counting in presence of 5-Fluoro-2-(1-methyl-1H-indol-5-yl)-oxazolo[5,4-b]pyridine. Format: tissue-based. The settings on record: tested as the 3H-labelled form.

Molecules are shown by their SMILES. The source made the active and inactive calls. No cut-off for these calls is given here.

T1 sequence (P05067 whole entry): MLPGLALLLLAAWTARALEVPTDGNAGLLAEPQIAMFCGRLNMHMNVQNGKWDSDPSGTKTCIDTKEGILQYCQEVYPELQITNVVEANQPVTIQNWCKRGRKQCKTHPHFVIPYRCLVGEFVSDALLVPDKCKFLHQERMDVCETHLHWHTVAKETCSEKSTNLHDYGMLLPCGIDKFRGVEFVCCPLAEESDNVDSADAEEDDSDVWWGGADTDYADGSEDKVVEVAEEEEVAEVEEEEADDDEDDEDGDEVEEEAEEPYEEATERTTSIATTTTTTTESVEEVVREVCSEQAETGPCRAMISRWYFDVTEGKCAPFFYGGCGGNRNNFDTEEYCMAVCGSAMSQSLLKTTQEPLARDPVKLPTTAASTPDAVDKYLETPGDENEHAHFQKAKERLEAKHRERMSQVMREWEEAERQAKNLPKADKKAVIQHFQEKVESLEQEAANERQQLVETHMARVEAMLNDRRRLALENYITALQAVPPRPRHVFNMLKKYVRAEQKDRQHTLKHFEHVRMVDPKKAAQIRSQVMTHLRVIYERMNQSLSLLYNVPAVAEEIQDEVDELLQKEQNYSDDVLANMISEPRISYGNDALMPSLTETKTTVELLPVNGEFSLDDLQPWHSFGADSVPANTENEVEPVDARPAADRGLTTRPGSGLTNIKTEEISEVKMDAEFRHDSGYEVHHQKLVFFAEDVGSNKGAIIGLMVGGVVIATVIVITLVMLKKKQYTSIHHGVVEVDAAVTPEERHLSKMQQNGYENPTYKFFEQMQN

With `Cn1ccc2cc(-c3nc4ccc(F)nc4o3)cnc21`, in the data set on P-gp (Homo sapiens), the apparent permeability coefficient (Papp) (usually a coefficient for how fast a substance crosses the barrier) was above 20 ×10⁻⁶ cm/s. Further, in [1], the Activity turned out to be 35%. For the same molecule, the outcome in data set [2] was Active. In data set [3], this molecule gave a Bmax of 1100 nM. In data set [4], the Ratio is 117. Further, the concentration for half-maximal inhibition (IC50) (in general, the concentration that inhibits the measured activity by half) in [5] was found to be 10.5 nM. In addition, the efflux ratio (usually the permeability from basolateral to apical divided by that in the opposite direction, in the common usage) with P-gp was below 3.
For the molecule `Fc1ccc2nc(-c3cnc4[nH]ccc4c3)oc2n1`, the apparent permeability (Papp) in the data set with P-gp (Homo sapiens) was above 20 ×10⁻⁶ cm/s. In data set [5], this molecule yielded a 50% inhibitory concentration (IC50) of 25.7 nM. Further, the efflux ratio in the data set on P-gp is below 3.
For `Fc1ccc2nc(-c3ccc4cc[nH]c4c3)oc2n1` the same measures were above 20 ×10⁻⁶ cm/s, 45.3 nM and below 3.
For `Cn1ncc2cc(-c3nc4ccc(F)nc4o3)ccc21` the same measures were above 20 ×10⁻⁶ cm/s, 48.7 nM and below 3.
Take `Cn1ccc2cc(-c3nc4ccc(F)nc4o3)ncc21`: the Papp with P-gp (Homo sapiens) was above 20 ×10⁻⁶ cm/s. In data set [5], this molecule gave a half-inhibitory concentration (IC50) above 1000 nM. Also, the efflux ratio in the data set on P-gp was below 3.
For `CNc1ccc(-c2nc3ccc(F)nc3o2)cn1` the same measures were above 20 ×10⁻⁶ cm/s, 102 nM and below 3.
Take `Cn1ccc2cc(-c3nc4ccc([18F])nc4o3)cnc21`: the Drug uptake result (in data set [6]; with Brain; in data set [8]) was “Not Active” in each case. The SUV in data set [7] was 3; in data set [9], 2.7.
For `CN(C)c1ccc(-c2nc3ccc(F)nc3o2)cc1`, the Papp in the data set with P-gp (Homo sapiens) was above 20 ×10⁻⁶ cm/s. For the same molecule, the result in [2] was Active. The Bmax in [3] was 2090 nM. Moreover, the Activity in data set [10] was 50%. Besides, the Ratio in data set [4] came to 464. Besides, the IC50 in data set [5] amounted to 4 nM. Besides, the efflux ratio in the data set on P-gp is below 3.
Take `CNc1ccc(-c2nc3ccc(F)nc3o2)cc1`: the Papp in the data set on P-gp (Homo sapiens) is above 20 ×10⁻⁶ cm/s. The same molecule yielded a concentration for half-maximal inhibition (IC50) in data set [5] of 23.1 nM. In the data set with P-gp, the efflux ratio was below 3.
For `CN1CCc2cc(-c3nc4ccc(F)nc4o3)cnc21`, in the data set on P-gp (Homo sapiens), the Papp was above 20 ×10⁻⁶ cm/s. In data set [5], this molecule gave an IC50 of 47 nM. Besides, the efflux ratio with P-gp is below 3.
As for `Cn1ccc2cc(-c3nc4ccc(F)nc4o3)ccc21`, in the data set with P-gp (Homo sapiens), the Papp was above 20 ×10⁻⁶ cm/s. The result in data set [2] was inactive. The molecule also registered a Bmax in data set [3] of 1450 nM. In [4], the Ratio turned out to be 232. The Activity in [11] came to 50%. In [5], this molecule yielded a concentration for half-maximal inhibition (IC50) of 8 nM. In the data set on P-gp, the efflux ratio was below 3.
Take `[3H]C([3H])([3H])n1ccc2cc(-c3nc4ccc(F)nc4o3)ccc21`: in data set [3], the Kd (commonly the concentration at which binding is half-saturated) stood at 6.4 nM.
Consider `Cn1cnc2cc(-c3nc4ccc(F)nc4o3)ccc21`, for which the apparent permeability (Papp) with P-gp (Homo sapiens) is above 20 ×10⁻⁶ cm/s. This molecule had an IC50 in [5] above 1000 nM. Besides, the efflux ratio in the data set with P-gp was below 3.
In turn, `[3H]C([3H])([3H])n1ccc2cc(-c3nc4ccc(F)nc4o3)cnc21` gave a dissociation constant Kd in data set [3] of 9.6 nM.
Consider `Fc1ccc2nc(-c3ccc4ncsc4c3)oc2n1`, for which the Papp in the data set with P-gp (Homo sapiens) is above 20 ×10⁻⁶ cm/s. Besides, the IC50 in data set [5] was 35.8 nM. In addition, the efflux ratio with P-gp is below 3.
For `Cn1ncc2cc(-c3nc4ccc(F)nc4o3)cnc21`, in that order: above 20 ×10⁻⁶ cm/s, 30.2 nM and below 3.
Regarding `Fc1ccc2nc(-c3ccc4[nH]ccc4c3)oc2n1`, the apparent permeability (Papp) in the data set on P-gp (Homo sapiens) was above 20 ×10⁻⁶ cm/s. In data set [5], this molecule returned an IC50 of 13.8 nM. The efflux ratio with P-gp was below 3.
For `CN(C)c1ccc(-c2nc3ccc(F)nc3o2)cn1` the same measures were above 20 ×10⁻⁶ cm/s, 41.8 nM and below 3.
As to `[3H]C([3H])([3H])N(C)c1ccc(-c2nc3ccc(F)nc3o2)cc1`, the dissociation constant (Kd) in [3] amounted to 4.5 nM.
`COc1ccc(-c2nc3ccc(F)nc3o2)cc1`: in the data set on P-gp (Homo sapiens), the apparent permeability (Papp) was above 20 ×10⁻⁶ cm/s. Further, in [5], the 50% inhibitory concentration (IC50) came to 32.5 nM. In the data set on P-gp, the efflux ratio was below 3.
